Here are results for eight molecules from ChEMBL document CHEMBL1156528, “Acetyl-lysine analog peptides as mechanistic probes of protein deacetylases” (J Biol Chem, 2007).

The assay deals with NAD-dependent protein deacetylase HST2 (Saccharomyces cerevisiae S288c, UniProt P53686). The assay can be described thus: Binding affinity to Saccharomyces cerevisiae Hst2 by isothermal titration calorimetry.

What is called Kd is a measure of binding affinity in units of concentration. High values mean lower affinity, low ones higher affinity.

Chain of NAD-dependent protein deacetylase HST2 (P53686 whole entry): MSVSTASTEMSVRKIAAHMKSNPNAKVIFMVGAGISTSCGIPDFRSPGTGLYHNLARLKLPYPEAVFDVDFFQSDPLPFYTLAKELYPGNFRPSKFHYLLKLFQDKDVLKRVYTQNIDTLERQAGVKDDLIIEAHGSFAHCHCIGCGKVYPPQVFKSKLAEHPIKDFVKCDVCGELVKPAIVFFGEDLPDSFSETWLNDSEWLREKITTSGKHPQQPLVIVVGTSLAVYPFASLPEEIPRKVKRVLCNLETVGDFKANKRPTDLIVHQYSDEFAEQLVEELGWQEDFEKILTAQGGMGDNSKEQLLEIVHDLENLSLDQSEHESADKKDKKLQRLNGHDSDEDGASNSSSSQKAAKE

With `CC(=N)NCCCC[C@H](NC(=O)CNC(=O)CNC(=O)[C@@H](NC(=O)[C@H](CO)NC(=O)[C@@H](N)CCCCN)[C@@H](C)O)C(=O)N[C@@H](C)C(=O)N1CCC[C@H]1C(=O)N[C@@H](CCCN=C(N)N)C(=O)N[C@@H](CCCCN)C(=O)N[C@@H](CCC(N)=O)C(=O)O`, the affinity, expressed as Kd, was 3.3 µM. The figure for `C[C@H](NC(=O)[C@H](CCCCNC(=N)N)NC(=O)CNC(=O)CNC(=O)[C@@H](NC(=O)[C@H](CO)NC(=O)[C@@H](N)CCCCN)[C@@H](C)O)C(=O)N1CCC[C@H]1C(=O)N[C@@H](CCCNC(=N)N)C(=O)N[C@@H](CCCCN)C(=O)N[C@@H](CCC(N)=O)C(=O)O` is 3.3 µM; for `C[C@H](NC(=O)[C@H](CCCCNC(=O)CO)NC(=O)CNC(=O)CNC(=O)[C@@H](NC(=O)[C@H](CO)NC(=O)[C@@H](N)CCCCN)[C@@H](C)O)C(=O)N1CCC[C@H]1C(=O)N[C@@H](CCCNC(=N)N)C(=O)N[C@@H](CCCCN)C(=O)N[C@@H](CCC(N)=O)C(=O)O` it is 3.3 µM. As to `C[C@H](NC(=O)[C@H](CCCCNC(N)=O)NC(=O)CNC(=O)CNC(=O)[C@@H](NC(=O)[C@H](CO)NC(=O)[C@@H](N)CCCCN)[C@@H](C)O)C(=O)N1CCC[C@H]1C(=O)N[C@@H](CCCN=C(N)N)C(=O)N[C@@H](CCCCN)C(=O)N[C@@H](CCC(N)=O)C(=O)O`, binding was put at a Kd of 3.3 µM. Next, `CC(=S)NCCCC[C@H](NC(=O)CNC(=O)CNC(=O)[C@@H](NC(=O)[C@H](CO)NC(=O)[C@@H](N)CCCCN)[C@@H](C)O)C(=O)N[C@@H](C)C(=O)N1CCC[C@H]1C(=O)N[C@@H](CCCNC(=N)N)C(=O)N[C@@H](CCCCN)C(=O)N[C@@H](CCC(N)=O)C(=O)O`: 3.3 µM; `CCCC(=O)NCCCC[C@H](NC(=O)CNC(=O)CNC(=O)[C@@H](NC(=O)[C@H](CO)NC(=O)[C@@H](N)CCCCN)[C@@H](C)O)C(=O)N[C@@H](C)C(=O)N1CCC[C@H]1C(=O)N[C@@H](CCCN=C(N)N)C(=O)N[C@@H](CCCCN)C(=O)N[C@@H](CCC(N)=O)C(=O)O`: 16 µM; `C[C@H](NC(=O)[C@H](CCCCNC(=O)CF)NC(=O)CNC(=O)CNC(=O)[C@@H](NC(=O)[C@H](CO)NC(=O)[C@@H](N)CCCCN)[C@@H](C)O)C(=O)N1CCC[C@H]1C(=O)N[C@@H](CCCNC(=N)N)C(=O)N[C@@H](CCCCN)C(=O)N[C@@H](CCC(N)=O)C(=O)O`: 3.3 µM. The molecule `C[C@H](NC(=O)[C@H](CCCCNC(=O)C(F)F)NC(=O)CNC(=O)CNC(=O)[C@@H](NC(=O)[C@H](CO)NC(=O)[C@@H](N)CCCCN)[C@@H](C)O)C(=O)N1CCC[C@H]1C(=O)N[C@@H](CCCN=C(N)N)C(=O)N[C@@H](CCCCN)C(=O)N[C@@H](CCC(N)=O)C(=O)O` had a Kd of 3.3 µM. This lies in the single-digit micromolar range.
